The values below come from ChEMBL document CHEMBL5104230, “Preparation, biological evaluation and QSAR analysis of urea substituted 2,4-diamino-pyrimidine anti-malarials” (RSC Med Chem, 2022).

Values after ≈ are worked out from the molar mass of the structure shown.

The subject of data set [1] is Plasmodium falciparum. Kind of data set: Antimalarial activity against Plasmodium falciparum 3D7 assessed as reduction in parasite growth incubated for 72 hrs. It counts as functional, organism-based. The settings on record: 3D7, 72 h.
For data set [2], the system named is HepG2. Kind of data set: Cytotoxicity against human HepG2 cells assessed as cell growth inhibition at 10 uM incubated for 48 hrs by CellTiter-Glo assay. The data set is classed as functional. Details: scale not given: the % may be the effect or the level left. In general terms: In ATP-based viability assays light output follows the ATP content of the culture.

The subject of data set [3] is Plasmodium falciparum. Kind of data set: Antimalarial activity against chloroquine sensitive Plasmodium falciparum 3D7 infected in human RBC assessed as parasite growth inhibition incubated for 72 hrs by SYBR Green dye based fluorescence assay. It counts as functional, organism-based. The settings on record: 3D7, Erythrocyte.
In data set [4] the test system is HepG2. Kind of data set: Cytotoxicity against human HepG2 cells assessed as cell growth inhibition incubated for 72 hrs by resazurin dye based fluorescence assay. The data set is classed as functional. Conditions: HepG2, 72 h. On the technique in general: Alamar Blue is a resazurin reagent that responds to reducing activity.
A short description of data set [5]: Partition coefficient, logD of compound in octanol and phosphate buffer at pH 7.4 incubated for 6 hrs under shaking condition by HPLC-UV analysis. It counts as physicochemical.
The nature of data set [6]: Aqueous solubility of compound in PBS buffer at pH 7.4 by HPLC-UV analysis. The data set is classed as physicochemical.
Data set [7] can be described thus: Effective permeability in PBS at pH 7.4 incubated for 5 hrs by PAMPA based UPLC-MS/MS analysis. The data set is classed as ADME. A general note: PAMPA measures passive passage across an artificial lipid membrane.
The nature of data set [8]: Metabolic stability in human liver microsome assessed as intrinsic clearance at 0.5 uM incubated upto 30 mins by UPLC-MS/MS analysis. The data set is classed as ADME. Conditions: microsomes, 0.5 h.
The nature of data set [9]: Metabolic stability in CD1 mouse liver microsome assessed as intrinsic clearance at 0.5 uM incubated upto 30 mins by UPLC-MS/MS analysis. The data set is classed as ADME. Conditions: microsomes, 0.5 h.
The target in data set [10] is Serine/threonine-protein kinase pim-1 (Homo sapiens) (UniProt P11309). Kind of data set: Inhibition of human PIM1 at 1 uM incubated for 30 mins in presence of [gamma-33P]ATP by kinase selectivity assay.
The target in data set [11] is Cyclin-dependent kinase 2 (Homo sapiens) (UniProt P24941). Kind of data set: Inhibition of human CDK2 at 1 uM incubated for 30 mins in presence of [gamma-33P]ATP by kinase selectivity assay.
The target of data set [12] is Mitogen-activated protein kinase 3 (Homo sapiens) (UniProt P27361). Kind of data set: Inhibition of human ERK1 at 1 uM incubated for 30 mins in presence of [gamma-33P]ATP by kinase selectivity assay.
In data set [13] the target is Mitogen-activated protein kinase 8 (Homo sapiens) (UniProt P45983). Kind of data set: Inhibition of human JNK1 at 1 uM incubated for 30 mins in presence of [gamma-33P]ATP by kinase selectivity assay.
Data set [14] deals with T1, Tyrosine-protein kinase JAK3 (Homo sapiens) (UniProt P52333).
T1 sequence (whole entry): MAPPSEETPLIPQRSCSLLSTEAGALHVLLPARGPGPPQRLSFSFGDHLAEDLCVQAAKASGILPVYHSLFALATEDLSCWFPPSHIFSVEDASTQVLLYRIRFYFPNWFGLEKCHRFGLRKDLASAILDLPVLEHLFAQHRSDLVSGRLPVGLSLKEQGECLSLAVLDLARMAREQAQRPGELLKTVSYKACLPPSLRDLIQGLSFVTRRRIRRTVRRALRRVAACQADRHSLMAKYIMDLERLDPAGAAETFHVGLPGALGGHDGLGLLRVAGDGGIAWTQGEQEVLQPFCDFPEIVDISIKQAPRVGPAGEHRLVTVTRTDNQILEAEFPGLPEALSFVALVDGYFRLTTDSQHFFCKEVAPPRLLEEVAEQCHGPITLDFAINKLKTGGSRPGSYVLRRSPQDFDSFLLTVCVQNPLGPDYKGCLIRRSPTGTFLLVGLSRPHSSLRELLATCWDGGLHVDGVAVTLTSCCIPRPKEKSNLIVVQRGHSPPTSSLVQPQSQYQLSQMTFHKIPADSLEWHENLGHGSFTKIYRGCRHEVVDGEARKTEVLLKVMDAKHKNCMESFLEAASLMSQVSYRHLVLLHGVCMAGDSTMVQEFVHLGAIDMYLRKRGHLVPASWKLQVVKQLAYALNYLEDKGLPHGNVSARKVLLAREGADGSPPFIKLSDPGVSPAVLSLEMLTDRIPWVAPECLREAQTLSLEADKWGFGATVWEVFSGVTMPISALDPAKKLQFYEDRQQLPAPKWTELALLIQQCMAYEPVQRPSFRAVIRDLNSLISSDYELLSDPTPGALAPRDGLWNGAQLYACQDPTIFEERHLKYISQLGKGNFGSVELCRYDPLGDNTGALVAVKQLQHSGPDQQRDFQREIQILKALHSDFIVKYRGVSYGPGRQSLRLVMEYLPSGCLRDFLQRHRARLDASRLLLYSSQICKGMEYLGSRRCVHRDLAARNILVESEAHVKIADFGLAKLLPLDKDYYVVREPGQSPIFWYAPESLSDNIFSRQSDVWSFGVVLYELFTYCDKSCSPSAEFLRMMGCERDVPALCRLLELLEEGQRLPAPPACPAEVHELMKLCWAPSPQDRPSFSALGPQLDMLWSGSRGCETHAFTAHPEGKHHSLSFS
Kind of data set: Inhibition of human JAK3 at 1 uM incubated for 30 mins in presence of [gamma-33P]ATP by kinase selectivity assay.

Data set [15] deals with Mitogen-activated protein kinase kinase kinase 1 (Homo sapiens) (UniProt Q13233). Kind of data set: Inhibition of human MEKK1 at 1 uM incubated for 30 mins in presence of [gamma-33P]ATP by kinase selectivity assay.
Data set [16] deals with Receptor tyrosine-protein kinase erbB-4 (Homo sapiens) (UniProt Q15303). Kind of data set: Inhibition of human HER4 at 1 uM incubated for 30 mins in presence of [gamma-33P]ATP by kinase selectivity assay.
For data set [17], the target named is T2, Mitogen-activated protein kinase kinase kinase 7 (Homo sapiens) (UniProt O43318).
T2 sequence (whole entry): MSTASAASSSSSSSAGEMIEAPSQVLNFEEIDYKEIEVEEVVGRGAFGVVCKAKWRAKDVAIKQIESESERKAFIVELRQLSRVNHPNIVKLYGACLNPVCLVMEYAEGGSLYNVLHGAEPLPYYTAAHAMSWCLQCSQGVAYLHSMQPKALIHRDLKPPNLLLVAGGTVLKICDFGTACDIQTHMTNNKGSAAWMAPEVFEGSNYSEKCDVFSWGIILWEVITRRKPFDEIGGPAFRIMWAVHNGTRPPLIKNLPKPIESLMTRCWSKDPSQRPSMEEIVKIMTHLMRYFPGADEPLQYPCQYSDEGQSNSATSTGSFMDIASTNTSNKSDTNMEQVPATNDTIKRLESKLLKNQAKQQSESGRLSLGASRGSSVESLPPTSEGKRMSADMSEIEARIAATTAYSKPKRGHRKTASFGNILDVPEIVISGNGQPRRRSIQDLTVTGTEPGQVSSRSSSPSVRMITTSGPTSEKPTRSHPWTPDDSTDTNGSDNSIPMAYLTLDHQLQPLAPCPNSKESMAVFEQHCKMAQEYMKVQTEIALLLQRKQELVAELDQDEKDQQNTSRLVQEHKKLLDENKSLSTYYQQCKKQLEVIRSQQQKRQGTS
Kind of data set: Inhibition of human TAK1 at 1 uM incubated for 30 mins in presence of [gamma-33P]ATP by kinase selectivity assay.

The target in data set [18] is T3, Aurora kinase A (Homo sapiens) (UniProt O14965).
T3 sequence (whole entry): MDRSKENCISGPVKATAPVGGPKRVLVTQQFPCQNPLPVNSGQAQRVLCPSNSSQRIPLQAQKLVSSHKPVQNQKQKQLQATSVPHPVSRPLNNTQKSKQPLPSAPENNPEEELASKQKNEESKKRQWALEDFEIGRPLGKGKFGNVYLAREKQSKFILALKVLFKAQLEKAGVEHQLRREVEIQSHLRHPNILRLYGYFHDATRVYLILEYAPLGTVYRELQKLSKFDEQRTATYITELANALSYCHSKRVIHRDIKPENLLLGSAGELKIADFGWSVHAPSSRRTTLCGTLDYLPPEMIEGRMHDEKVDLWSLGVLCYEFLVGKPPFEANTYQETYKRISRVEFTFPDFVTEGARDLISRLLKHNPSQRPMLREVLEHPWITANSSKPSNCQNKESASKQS
Kind of data set: Inhibition of human AURA at 1 uM incubated for 30 mins in presence of [gamma-33P]ATP by kinase selectivity assay.

Data set [19] addresses Vascular endothelial growth factor receptor 1 (Homo sapiens) (UniProt P17948). Kind of data set: Inhibition of human VEGFR1 at 1 uM incubated for 30 mins in presence of [gamma-33P]ATP by kinase selectivity assay.

Sequence of Mitogen-activated protein kinase 8 (Homo sapiens) (P45983 whole entry): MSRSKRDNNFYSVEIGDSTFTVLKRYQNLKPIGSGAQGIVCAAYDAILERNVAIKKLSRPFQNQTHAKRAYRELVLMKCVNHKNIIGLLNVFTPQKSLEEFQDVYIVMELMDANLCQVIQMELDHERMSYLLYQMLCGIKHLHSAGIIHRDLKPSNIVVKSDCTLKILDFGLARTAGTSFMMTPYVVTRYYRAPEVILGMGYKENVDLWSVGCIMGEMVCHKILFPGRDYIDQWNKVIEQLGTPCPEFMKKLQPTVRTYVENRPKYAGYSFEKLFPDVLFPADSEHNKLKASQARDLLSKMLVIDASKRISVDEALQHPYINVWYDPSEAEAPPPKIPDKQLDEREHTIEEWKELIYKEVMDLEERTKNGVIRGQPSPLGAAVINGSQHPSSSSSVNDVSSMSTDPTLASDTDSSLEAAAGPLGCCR
Sequence of Receptor tyrosine-protein kinase erbB-4 (Homo sapiens) (Q15303 whole entry): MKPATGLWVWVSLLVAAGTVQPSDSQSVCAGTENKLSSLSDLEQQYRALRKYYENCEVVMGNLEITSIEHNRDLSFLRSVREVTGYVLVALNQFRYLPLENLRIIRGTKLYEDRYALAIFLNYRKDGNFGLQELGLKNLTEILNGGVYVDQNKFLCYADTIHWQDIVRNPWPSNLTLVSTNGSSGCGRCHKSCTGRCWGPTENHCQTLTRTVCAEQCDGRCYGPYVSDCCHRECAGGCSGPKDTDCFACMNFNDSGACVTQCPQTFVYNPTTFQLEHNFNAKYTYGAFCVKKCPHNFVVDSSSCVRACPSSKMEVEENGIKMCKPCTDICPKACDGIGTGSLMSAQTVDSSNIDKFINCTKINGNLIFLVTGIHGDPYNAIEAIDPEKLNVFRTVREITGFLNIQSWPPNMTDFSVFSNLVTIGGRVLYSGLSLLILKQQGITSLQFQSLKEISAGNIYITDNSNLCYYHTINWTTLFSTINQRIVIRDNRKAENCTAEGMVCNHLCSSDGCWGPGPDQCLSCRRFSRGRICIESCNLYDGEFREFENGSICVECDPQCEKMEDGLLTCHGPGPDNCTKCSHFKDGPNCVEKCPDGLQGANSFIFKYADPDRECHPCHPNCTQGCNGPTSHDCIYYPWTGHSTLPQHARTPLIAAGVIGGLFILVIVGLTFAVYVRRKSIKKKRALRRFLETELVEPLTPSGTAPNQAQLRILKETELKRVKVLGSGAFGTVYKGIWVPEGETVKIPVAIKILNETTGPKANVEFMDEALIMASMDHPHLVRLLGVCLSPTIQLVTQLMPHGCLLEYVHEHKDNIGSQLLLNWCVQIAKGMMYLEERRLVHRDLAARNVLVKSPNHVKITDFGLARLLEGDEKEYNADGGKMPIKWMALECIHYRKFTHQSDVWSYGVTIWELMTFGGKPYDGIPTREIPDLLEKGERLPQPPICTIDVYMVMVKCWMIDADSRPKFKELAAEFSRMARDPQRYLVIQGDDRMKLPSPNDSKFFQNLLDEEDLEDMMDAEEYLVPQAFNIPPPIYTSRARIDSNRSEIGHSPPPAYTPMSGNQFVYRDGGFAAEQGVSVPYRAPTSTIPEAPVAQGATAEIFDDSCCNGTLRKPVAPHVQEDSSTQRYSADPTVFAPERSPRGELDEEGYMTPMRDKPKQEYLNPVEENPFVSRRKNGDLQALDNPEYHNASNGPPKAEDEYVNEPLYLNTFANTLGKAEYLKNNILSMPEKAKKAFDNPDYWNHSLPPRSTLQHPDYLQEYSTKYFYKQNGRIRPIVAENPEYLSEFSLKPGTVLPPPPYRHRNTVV
Sequence of Mitogen-activated protein kinase kinase kinase 1 (Homo sapiens) (Q13233 whole entry): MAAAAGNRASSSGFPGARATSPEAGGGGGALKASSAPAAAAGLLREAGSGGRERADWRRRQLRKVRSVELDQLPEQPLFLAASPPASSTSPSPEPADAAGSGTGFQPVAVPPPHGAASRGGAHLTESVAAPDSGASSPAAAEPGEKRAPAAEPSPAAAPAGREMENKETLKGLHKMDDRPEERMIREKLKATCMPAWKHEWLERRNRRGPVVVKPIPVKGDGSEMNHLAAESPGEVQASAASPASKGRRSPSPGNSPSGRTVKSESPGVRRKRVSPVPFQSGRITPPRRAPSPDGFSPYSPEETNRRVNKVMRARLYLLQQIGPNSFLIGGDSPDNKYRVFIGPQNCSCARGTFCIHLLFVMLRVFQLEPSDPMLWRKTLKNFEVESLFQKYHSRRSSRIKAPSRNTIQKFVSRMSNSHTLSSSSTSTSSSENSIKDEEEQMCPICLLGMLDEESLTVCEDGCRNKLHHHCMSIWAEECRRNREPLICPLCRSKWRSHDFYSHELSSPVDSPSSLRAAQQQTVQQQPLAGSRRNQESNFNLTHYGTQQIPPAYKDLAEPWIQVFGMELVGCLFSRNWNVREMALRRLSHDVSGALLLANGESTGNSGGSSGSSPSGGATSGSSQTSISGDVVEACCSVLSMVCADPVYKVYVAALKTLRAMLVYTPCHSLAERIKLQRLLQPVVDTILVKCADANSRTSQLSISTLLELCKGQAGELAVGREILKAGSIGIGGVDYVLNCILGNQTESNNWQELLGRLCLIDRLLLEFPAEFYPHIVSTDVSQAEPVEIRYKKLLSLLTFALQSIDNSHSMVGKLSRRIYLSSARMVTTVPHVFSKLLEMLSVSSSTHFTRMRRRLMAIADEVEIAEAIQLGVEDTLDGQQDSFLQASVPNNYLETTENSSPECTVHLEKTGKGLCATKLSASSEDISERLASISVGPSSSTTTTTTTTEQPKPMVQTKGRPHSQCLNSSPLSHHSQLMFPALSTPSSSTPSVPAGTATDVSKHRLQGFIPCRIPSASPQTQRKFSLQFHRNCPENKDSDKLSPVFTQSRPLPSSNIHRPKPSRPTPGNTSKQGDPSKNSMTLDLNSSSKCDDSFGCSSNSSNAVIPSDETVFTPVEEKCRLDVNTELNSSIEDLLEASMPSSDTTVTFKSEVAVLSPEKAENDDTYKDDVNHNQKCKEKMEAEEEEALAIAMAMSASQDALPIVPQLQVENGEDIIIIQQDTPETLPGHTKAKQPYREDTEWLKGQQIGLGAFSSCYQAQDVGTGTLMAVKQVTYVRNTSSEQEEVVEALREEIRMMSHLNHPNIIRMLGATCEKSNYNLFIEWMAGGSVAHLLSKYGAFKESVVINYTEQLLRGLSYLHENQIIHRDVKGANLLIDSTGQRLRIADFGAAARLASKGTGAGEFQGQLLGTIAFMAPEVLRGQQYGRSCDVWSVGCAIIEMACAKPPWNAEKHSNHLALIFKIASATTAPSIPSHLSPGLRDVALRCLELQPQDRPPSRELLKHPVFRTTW
Sequence of Vascular endothelial growth factor receptor 1 (Homo sapiens) (P17948 whole entry): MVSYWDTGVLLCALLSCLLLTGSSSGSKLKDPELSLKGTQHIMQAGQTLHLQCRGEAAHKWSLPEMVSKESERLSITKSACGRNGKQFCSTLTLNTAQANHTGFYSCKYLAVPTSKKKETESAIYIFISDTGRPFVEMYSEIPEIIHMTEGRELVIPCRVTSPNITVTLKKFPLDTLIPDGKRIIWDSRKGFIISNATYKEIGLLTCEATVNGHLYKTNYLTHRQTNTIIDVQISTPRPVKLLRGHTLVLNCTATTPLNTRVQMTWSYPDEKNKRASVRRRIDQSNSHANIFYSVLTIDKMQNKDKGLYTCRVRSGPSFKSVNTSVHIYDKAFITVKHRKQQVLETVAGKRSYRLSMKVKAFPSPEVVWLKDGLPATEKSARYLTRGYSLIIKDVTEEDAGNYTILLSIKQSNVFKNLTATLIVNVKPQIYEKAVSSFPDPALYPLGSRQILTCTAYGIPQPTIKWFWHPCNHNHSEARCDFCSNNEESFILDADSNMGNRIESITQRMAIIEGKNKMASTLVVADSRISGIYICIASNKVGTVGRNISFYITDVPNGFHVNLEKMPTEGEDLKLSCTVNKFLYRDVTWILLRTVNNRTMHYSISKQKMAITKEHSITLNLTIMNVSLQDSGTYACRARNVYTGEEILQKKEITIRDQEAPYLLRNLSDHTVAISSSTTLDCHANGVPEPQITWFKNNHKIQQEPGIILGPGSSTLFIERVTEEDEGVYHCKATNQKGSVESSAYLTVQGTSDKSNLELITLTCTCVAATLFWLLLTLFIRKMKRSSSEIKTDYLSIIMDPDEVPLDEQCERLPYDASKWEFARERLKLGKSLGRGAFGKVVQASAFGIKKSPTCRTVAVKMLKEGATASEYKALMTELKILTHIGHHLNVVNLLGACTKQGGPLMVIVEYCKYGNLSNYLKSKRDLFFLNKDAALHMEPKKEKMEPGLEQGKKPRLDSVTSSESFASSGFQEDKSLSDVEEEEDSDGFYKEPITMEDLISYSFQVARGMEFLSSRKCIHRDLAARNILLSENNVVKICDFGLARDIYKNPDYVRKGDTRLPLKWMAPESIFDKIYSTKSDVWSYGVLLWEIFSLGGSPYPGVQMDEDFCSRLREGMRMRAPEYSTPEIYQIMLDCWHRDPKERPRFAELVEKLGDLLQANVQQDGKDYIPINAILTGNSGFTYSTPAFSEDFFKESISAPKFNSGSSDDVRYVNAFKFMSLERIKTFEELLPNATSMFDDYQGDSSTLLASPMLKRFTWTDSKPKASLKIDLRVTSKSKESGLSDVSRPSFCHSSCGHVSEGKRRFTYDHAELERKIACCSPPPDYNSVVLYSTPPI
Sequence of Mitogen-activated protein kinase 3 (Homo sapiens) (P27361 whole entry): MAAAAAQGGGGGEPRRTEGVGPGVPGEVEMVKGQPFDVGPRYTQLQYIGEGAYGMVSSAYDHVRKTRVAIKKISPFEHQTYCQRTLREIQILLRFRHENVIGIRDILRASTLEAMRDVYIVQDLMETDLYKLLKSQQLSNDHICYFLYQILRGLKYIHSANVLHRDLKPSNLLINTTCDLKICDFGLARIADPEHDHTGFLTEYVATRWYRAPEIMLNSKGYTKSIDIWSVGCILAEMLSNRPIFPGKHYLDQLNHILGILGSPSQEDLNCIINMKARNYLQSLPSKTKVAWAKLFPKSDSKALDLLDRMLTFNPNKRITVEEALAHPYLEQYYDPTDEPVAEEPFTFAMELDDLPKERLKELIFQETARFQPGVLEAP

Usually EC50 stands for the midpoint of the concentration-response curve. For `CN1CCN(c2ccc(Nc3ncc(C#N)c(Nc4ccccc4C(N)=O)n3)cc2)CC1`, the EC50 in the data set on Plasmodium falciparum [1] was determined as 40 nM. Also, the Activity in the data set with HepG2 [2] was 43%.

What is called IC50 is the concentration that gives 50% inhibition. One may read the logD as lipophilicity at a set pH, counting ionised and neutral species. What is called solubility is the dissolved amount per volume that the medium holds. A word on the Papp: it is the rate of passage across a membrane or cell layer, normalised by area and donor concentration. As usually defined, the inhibition is the relative decrease from the control value, in per cent. In the case of `O=C(Nc1ccccc1)Nc1cccc(Nc2nccc(Nc3ccc4cc[nH]c4c3)n2)c1`, the half-maximal inhibitory concentration (IC50) in the data set on Plasmodium falciparum [3] is 90 nM; in the data set on HepG2 [4], 3200 nM. In addition, the logD at 6 h in data set [5] was at least 4. The same molecule gave a solubility in data set [6] of 0.44 µg/mL (≈ 1.01 µM). The molecule further registered a Papp at 5 h in data set [7] of 10 ×10⁻⁶ cm/s. The CLH in data set [8] amounted to 2.6 mL/min/g; in data set [9], 3.8 mL/min/g. The inhibition in [10] was 80.2%; in data set [11], 78.8%; in data set [12], 75.6%; in data set [13], 59.6%; in [14] it was 57.7%; in data set [15], 40.7%. Also, the inhibition in data set [16] was determined as 42.3%; in data set [17], 17.1%; in data set [18], 16.5%; in [19] it was 2.4%.

Take `CC(=O)c1ccc(NC(=O)Nc2ccc(N(C)c3ccnc(Nc4cccc(CS(C)(=O)=O)c4)n3)cc2)cc1`: in the data set on Plasmodium falciparum [1], the 50% effective concentration (EC50) came out at 120 nM. Further, in the data set on HepG2 [2], the Activity came out at 86%.
